Test results taken from PubChem BioAssay (NCI).
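Tested at 5 concentrations; 48 h exposure; 96-well plates; endpoints linearly interpolated, else capped at highest concentration. GI50: concentration for 50% inhibition of growth. TGI: total growth inhibition.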

Columns and labels:
Test in all cases: inhibition of tumour cell growth, NCI panel, 48 h
[1] = system: KM12 colon
[2] = system: HOP-92 NSCLC
[3] = system: HOP-18 NSCLC
[4] = system: HCT-15 colon
[5] = system: HCC-2998 colon
[6] = system: UACC-257 melanoma
[7] = system: SN12C renal
[8] = system: SK-MEL-2 melanoma
[9] = system: K-562 leukemia
[10] = system: HOP-62 NSCLC
[11] = system: DMS 273 small cell lung
[12] = system: RPMI-8226 leukemia
[13] = system: CAKI-1 renal
[14] = system: NCI-H23 lung
[15] = system: OVCAR-8 ovarian
[16] = system: OVCAR-3 ovarian
[17] = system: A498 renal
[18] = system: KM20L2 colon
[19] = system: ACHN renal
[20] = system: SF-539 CNS
[21] = system: U251 CNS
[22] = system: OVCAR-4 ovarian
[23] = system: DLD-1 colon
[24] = system: TK-10 renal
[25] = system: SK-OV-3 ovarian
[26] = system: SNB-78 CNS
[27] = system: UO-31 renal
[28] = system: A549 NSCLC
[29] = system: SNB-75 CNS
[30] = system: 786-0 renal
[31] = system: SK-MEL-5 melanoma
[32] = system: UACC-62 melanoma
[33] = system: IGROV1 ovarian
[34] = system: MOLT-4 leukemia
[35] = system: LXFL 529 NSCLC
[36] = system: SNB-19 CNS
[37] = system: OVCAR-5 ovarian
[38] = system: SW-620 colon
[39] = system: CCRF-CEM leukemia
[40] = system: MALME-3M melanoma
[41] = system: NCI-H226 lung
[42] = system: RXF 393 renal
[43] = system: M19-MEL melanoma
[44] = system: COLO 205 colon
[45] = system: LOX IMVI melanoma
[46] = system: HT29 colon
[47] = system: M14 melanoma
[48] = system: SF-295 CNS
[49] = system: NCI-H460 lung
[50] = system: NCI-H522 lung
[51] = system: HL-60(TB) leukemia
[52] = system: EKVX NSCLC
[53] = system: HCT-116 colon
[54] = system: SF-268 CNS
[55] = system: DMS 114 small cell lung
[56] = system: SK-MEL-28 melanoma

Molecule `COC(=O)c1c(-c2cc(OC)c(OC)c(OC)c2)oc2ccccc2c1=O` has a TGI [1] greater than 100 µM, a TGI [2] greater than 100 µM and a TGI [3] greater than 100 µM. For the same molecule, the TGI [4] was greater than 100 µM, the TGI [5] was greater than 100 µM and the TGI [6] was greater than 100 µM. It also gave a TGI [7] greater than 100 µM, a TGI [8] greater than 100 µM and a TGI [9] greater than 100 µM. It also gave a TGI [10] greater than 100 µM, a TGI [11] greater than 100 µM and a TGI [12] greater than 100 µM. It also gave a TGI [13] greater than 100 µM, a TGI [14] greater than 100 µM and a TGI [15] greater than 100 µM. The TGI [16] was greater than 100 µM, the TGI [17] was greater than 100 µM and the TGI [18] was greater than 100 µM. It also gave a TGI [19] greater than 100 µM, a TGI [20] greater than 100 µM and a TGI [21] greater than 100 µM. The TGI [22] was greater than 100 µM, the TGI [23] was greater than 100 µM and the TGI [24] was greater than 100 µM. The TGI [25] was greater than 100 µM, the TGI [26] was greater than 100 µM and the TGI [27] was greater than 100 µM. For the same molecule, the TGI [28] was greater than 100 µM, the TGI [29] was greater than 100 µM and the TGI [30] was greater than 100 µM. The TGI [31] was greater than 100 µM, the TGI [32] was greater than 100 µM and the TGI [33] was greater than 100 µM. It also gave a TGI [34] greater than 100 µM, a TGI [35] greater than 100 µM and a TGI [36] greater than 100 µM. It also gave a TGI [37] greater than 100 µM, a TGI [38] greater than 100 µM and a TGI [39] greater than 100 µM. It also gave a TGI [40] greater than 100 µM, a TGI [41] greater than 100 µM and a TGI [42] greater than 100 µM. For the same molecule, the TGI [43] was greater than 100 µM, the TGI [44] was greater than 100 µM and the TGI [45] was greater than 100 µM. It also gave a TGI [46] greater than 100 µM, a TGI [47] greater than 100 µM and a TGI [48] greater than 100 µM. It also gave a TGI [49] greater than 100 µM, a TGI [50] greater than 100 µM and a TGI [51] greater than 100 µM. The TGI [52] was greater than 100 µM and the TGI [53] was greater than 100 µM.

`CC(C)COC1Sc2ccccc2S1` was tested, and the TGI [2] was 28.1 µM, the TGI [3] was 30.2 µM and the TGI [4] was 66 µM. It also gave a TGI [54] of 66.3 µM, a TGI [5] of 45.3 µM and a TGI [7] of 36.2 µM. For the same molecule, the TGI [10] was 41.3 µM, the TGI [11] was 43.1 µM and the TGI [12] was greater than 100 µM. The TGI [13] was 52.4 µM, the TGI [14] was 53.4 µM and the TGI [15] was greater than 100 µM. For the same molecule, the TGI [16] was 34.2 µM, the TGI [18] was 36.2 µM and the TGI [19] was 30 µM. It also gave a TGI [21] of 35.9 µM, a TGI [22] of 53.4 µM and a TGI [23] of 35.1 µM. It also gave a TGI [24] of 43 µM, a TGI [25] of 43.2 µM and a TGI [26] of 65.1 µM. For the same molecule, the TGI [27] was 29.4 µM, the TGI [28] was 46.6 µM and the TGI [29] was 6.36 µM. For the same molecule, the TGI [30] was 50 µM, the TGI [32] was 25.8 µM and the TGI [55] was 39.1 µM. For the same molecule, the TGI [33] was 32.3 µM, the TGI [56] was 33.7 µM and the TGI [34] was greater than 100 µM. It also gave a TGI [35] of 49.3 µM, a TGI [36] of 32.8 µM and a TGI [38] of 88.3 µM. For the same molecule, the TGI [39] was greater than 100 µM, the TGI [40] was 57.2 µM and the TGI [42] was 34.6 µM. It also gave a TGI [44] of 89.2 µM, a TGI [45] of 37.9 µM and a TGI [46] of 36.6 µM. For the same molecule, the TGI [47] was 52.4 µM, the TGI [48] was 31.3 µM and the TGI [49] was 24.6 µM. For the same molecule, the TGI [52] was 38.1 µM.

`C/C=C/C(=O)[O-].C/C=C/C(=O)[O-].N.N.N.N.[Co+3].[O-][Cl+3]([O-])([O-])[O-]` gave a GI50 [1] greater than 100 µM, a TGI [1] greater than 100 µM and a GI50 [2] greater than 100 µM. The TGI [2] was greater than 100 µM, the GI50 [4] was greater than 100 µM and the TGI [4] was greater than 100 µM. It also gave a GI50 [54] greater than 100 µM, a TGI [54] greater than 100 µM and a GI50 [5] greater than 100 µM. It also gave a TGI [5] greater than 100 µM, a GI50 [6] greater than 100 µM and a TGI [6] greater than 100 µM. For the same molecule, the GI50 [7] was greater than 100 µM, the TGI [7] was greater than 100 µM and the GI50 [8] was greater than 100 µM. It also gave a TGI [8] greater than 100 µM, a GI50 [9] greater than 100 µM and a TGI [9] greater than 100 µM. It also gave a GI50 [10] greater than 100 µM, a TGI [10] greater than 100 µM and a GI50 [11] greater than 100 µM. For the same molecule, the TGI [11] was greater than 100 µM, the GI50 [12] was greater than 100 µM and the TGI [12] was greater than 100 µM. It also gave a GI50 [14] greater than 100 µM, a TGI [14] greater than 100 µM and a GI50 [15] greater than 100 µM. It also gave a TGI [15] greater than 100 µM, a GI50 [16] greater than 100 µM and a TGI [16] greater than 100 µM. For the same molecule, the GI50 [17] was greater than 100 µM, the TGI [17] was greater than 100 µM and the GI50 [18] was greater than 100 µM. For the same molecule, the TGI [18] was greater than 100 µM, the GI50 [19] was greater than 100 µM and the TGI [19] was greater than 100 µM. It also gave a GI50 [20] greater than 100 µM, a TGI [20] greater than 100 µM and a GI50 [21] greater than 100 µM. For the same molecule, the TGI [21] was greater than 100 µM, the GI50 [22] was greater than 100 µM and the TGI [22] was greater than 100 µM. The GI50 [23] was greater than 100 µM, the TGI [23] was greater than 100 µM and the GI50 [24] was greater than 100 µM. For the same molecule, the TGI [24] was greater than 100 µM, the GI50 [25] was greater than 100 µM and the TGI [25] was greater than 100 µM. It also gave a GI50 [26] greater than 100 µM, a TGI [26] greater than 100 µM and a GI50 [27] greater than 100 µM. It also gave a TGI [27] greater than 100 µM, a GI50 [28] greater than 100 µM and a TGI [28] greater than 100 µM. For the same molecule, the GI50 [29] was 47.4 µM, the TGI [29] was greater than 100 µM and the GI50 [30] was greater than 100 µM. It also gave a TGI [30] greater than 100 µM, a GI50 [31] greater than 100 µM and a TGI [31] greater than 100 µM. The GI50 [32] was greater than 100 µM, the TGI [32] was greater than 100 µM and the GI50 [33] was greater than 100 µM. It also gave a TGI [33] greater than 100 µM, a GI50 [56] greater than 100 µM and a TGI [56] greater than 100 µM. For the same molecule, the GI50 [34] was greater than 100 µM, the TGI [34] was greater than 100 µM and the GI50 [35] was greater than 100 µM. The TGI [35] was greater than 100 µM, the GI50 [36] was greater than 100 µM and the TGI [36] was greater than 100 µM. For the same molecule, the GI50 [37] was greater than 100 µM, the TGI [37] was greater than 100 µM and the GI50 [38] was greater than 100 µM. It also gave a TGI [38] greater than 100 µM, a GI50 [39] greater than 100 µM and a TGI [39] greater than 100 µM. The GI50 [40] was greater than 100 µM, the TGI [40] was greater than 100 µM and the GI50 [44] was greater than 100 µM. For the same molecule, the TGI [44] was greater than 100 µM, the GI50 [45] was greater than 100 µM and the TGI [45] was greater than 100 µM. The GI50 [46] was greater than 100 µM, the TGI [46] was greater than 100 µM and the GI50 [47] was greater than 100 µM. It also gave a TGI [47] greater than 100 µM, a GI50 [48] greater than 100 µM and a TGI [48] greater than 100 µM. For the same molecule, the GI50 [49] was greater than 100 µM, the TGI [49] was greater than 100 µM and the GI50 [50] was 83.9 µM. It also gave a TGI [50] greater than 100 µM, a GI50 [51] greater than 100 µM and a TGI [51] greater than 100 µM. It also gave a GI50 [52] greater than 100 µM, a TGI [52] greater than 100 µM and a GI50 [53] greater than 100 µM. The TGI [53] was greater than 100 µM.
